Consider eleven compounds from patent US11344548B2, “Analogs of 3,5-dihydroxypentanoate for bone formation” (KAOHSIUNG MEDICAL UNIVERSITY, priority 2015, dated 2022).

SMILES strings stand for the structures. Where two headings read alike, the source gives them in different places.

The test system of data set [1] is D1 cells. Nature of the data set: Cytotoxicity MTT assay on D1 cells. The conditions noted are these: for IC50: Rattus norvegicus, 72 h, MTT, 3 days. In kind it is cell-based, rat. How it is done:
D1 cell is more sensitive than hADSC cell by drug treatment.
The cytotoxicity of compounds 4˜11 was analyzed using MTT assay. D1 cells were cultured to an initial culture density of 5×10^3 cells per well in a bone medium. The bone medium was a DMEM medium containing 10% Fetal bovine serum (FBS), 100 U/mL penicillin, 100 μg/mL streptomycin, […] ascorbic acid, 1% non-essential amino acids (NEAA) and 1.5 g sodium bicarbonate. After the cells were seeded, the bone medium with compounds 4˜11 respectively was set as the experimental group, the bone medium without compound was set as the blank test group, and all were cultured at 37° C. for 3 days. The MTT agent was added to the culture medium for 3 hours, then the medium was removed and the cells were washed with PBS, and 100 μL of DMSO was added to the wells to promote the dissolution of formazan. The DMSO solution containing formazan was measured using UV spectrophotometer at 595 nm wavelength, and the survival of cells was judged by the value of absorbance.
A general note: Tetrazolium dyes change colour on reduction, which living cells bring about.

Data set [2] addresses T1, HMG-CoA reductase (Homo sapiens, UniProt P04035).
T1 sequence (P04035 426-888 limits assumed): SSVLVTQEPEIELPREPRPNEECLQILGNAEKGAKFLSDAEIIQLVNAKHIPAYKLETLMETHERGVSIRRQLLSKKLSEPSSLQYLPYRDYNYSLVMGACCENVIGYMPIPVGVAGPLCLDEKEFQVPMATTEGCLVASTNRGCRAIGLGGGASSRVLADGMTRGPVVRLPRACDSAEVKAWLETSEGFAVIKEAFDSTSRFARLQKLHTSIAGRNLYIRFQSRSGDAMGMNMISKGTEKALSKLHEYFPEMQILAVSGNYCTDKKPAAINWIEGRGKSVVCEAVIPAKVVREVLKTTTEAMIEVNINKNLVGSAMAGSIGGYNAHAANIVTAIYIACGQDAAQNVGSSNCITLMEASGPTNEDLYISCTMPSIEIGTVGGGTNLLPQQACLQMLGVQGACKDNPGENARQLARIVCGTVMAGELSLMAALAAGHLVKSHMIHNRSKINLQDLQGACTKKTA
Kind of data set: HMG-CoA reductase inhibition. As to conditions: for IC50: HMG-CoA reductase 17.4 nM final, absorbance 340 nm; for effective inhibitory concentration compared with simvastatin: HMG-CoA reductase. The format is biochemical. As for the experimental part: HMG-CoA Reductase Inhibition
A 0.1 M phosphate buffer containing 100 μM […], 330 μM NADPH, 2% DMSO and 1 mg/mL BSA was firstly prepared. Compounds 1 and 4˜11 were added dissolved in phosphate buffer at various concentrations, then added HMG-CoA reductase (the final concentration is 17.4 nM) and mixed for 5 minutes. The absorbance of the solution was measured at 340 nm. The IC50 values were analyzed via nonlinear least-squares using Sigma 10 to determine the HMG-CoA reductase inhibition of compounds.

For data set [3], the system named is D1 cells. In kind it is cell-based. How it is done: (§1) The D1 cells, purchased from American Type Culture Collection, were plated in 48-well plates at a density of 3×10^4 cells/well. Once confluence was obtained, the cells were cultured in bone medium (BM, prepared with DMEM, 10% FBS, 100 U/mL penicillin, 100 μg/mL streptomycin, […] ascorbic acid, 1% NEAA, 1.5 g sodium bicarbonate) in the presence of compound 1. After 3 days, BM was replaced with an osteogenesis induction medium (OIM prepared with BM, 10^−2 M β-glycerophosphate and 10^−7 M dexamethasone). […] The medium was changed every 2 days. For the quantitative value of mineralization, the cells were washed with PBS triplex and fixed with 10% formalin for 30 minutes at room temperature. Thereafter, the cells were washed with deionized water triplex, and then stained with Alizarin Red S solution ([…], 80 mM, pH 4) for 10 minutes at room temperature. The cells were washed with deionized water triplex and dried overnight at room temperature. The Alizarin Red S was released from the cell matrix by being mixed with 10% acetic acid(aq) for 30 minutes. The concentration of Alizarin Red S was determined by measuring the absorbance at 415 nm.
The abilities of compounds 4˜11 to induce cell mineralization were evaluated followed the same method above, only remove dexamethasone from the recipe of osteogenesis induction medium.

Data set [4] deals with zebrafish. Nature of the data set: Bone-targeting of test compounds in zebrafish. The format is in vivo. The conditions noted are these: living zebrafish, 3.2 μM, fluorescence microscope, FIG. 9(a), 9(b).
Method: Calcein, which is a known staining dye for the mineral in animals, was used as a positive control group.
The AB strain of wild-type zebrafish was used for this study. Embryos were collected after natural spawning, staged according to standard criteria, and raised synchronously at 28.5° C. in Hank's buffer (13.7 mM NaCl, 540 M KCl, 25 μM Na2HPO4, 44 μM KH2PO4, 300 μM CaCl2, 100 μM MgSO4, 420 μM NaHCO3, pH 7.4). Zebrafish larvae at 2 dpf were exposed to test compounds (3.2 μM) for 3 days in a 24-well plate. At 7 dpf, the fish were anesthetized using tricaine-methanesulfonate (MS 222) and mounted on depression glass slides with methyl-cellulose (3%), and the images of the zebrafish were acquired using a Leica DM-6000 CS fluorescence microscope (Leica Instruments Inc., Wetzlar, Germany). All of the images were acquired using a SPOT Xplorer Digital camera (Diagnostic Instruments, Inc., Sterling Heights, Mich., USA). Each image was taken at 60-sec.
Data set [5] concerns D1 cells. Nature of the data set: Induction of mineralization (Alizarin Red S), FIG. 7. The format is cell-based, rat. How it is done: Following the tests above, the ability of inducing mineralization of the compounds to D1 cells was tested.
as §1

The test system of data set [6] is human adipose stem cells (hADSC). Nature of the data set: Cytotoxicity MTS assay on human adipose stem cells. How it is done:
Statins are known agents that induced stem cells to be osteogenesis.
In a 96-well plate, human adipose stem cells (hADSC) were cultured to an initial culture density of 6×10^3 cells per well in K medium (Keratinocyte-SFM, GIBCO-Invitrogen Corporation). […] The MTS agent was added to the culture medium for 3 hours, then the medium was removed and the cells were washed with PBS (phosphate buffered saline), and 100 μL of DMSO (dimethyl sulfoxide) was added to the wells to promote the dissolution of formazan. The DMSO solution containing formazan was measured using UV spectrophotometer at 490 nm wavelength, and the survival of cells was judged by the value of absorbance.

Data set [7] can be described thus: Combination with HAP monitored by fluorescent microscope. The format is physicochemical. The conditions noted are these: FIG. 6. From the text: If compound 1-F is combined with HAP, it can be monitored using a fluorescent microscope.
The subject of data set [8] is zebrafish. Kind of data set: Bone formation induced by test compounds in zebrafish (calcein staining). The format is in vivo. The conditions noted are these: zebrafish larvae, 0.32 μM, calcein stain, FIG. 9(c). How it is done:
The non-oligopeptide derivative 7 which had the most outstanding overall performance was selected from the above experiments. In the study for increasing the bone mass of zebrafish, when 0.1 or 1 μM of compound 7 were treated, both can promote bone formation in the zebrafish, and the increase range was between 30% and 50% compared with the non-administration group.
Zebrafish larvae at 2 dpf were treated with test compounds (0.32 μM) for 6 days in a 24-well plate. At 7 dpf, the fish were transferred to 6-cm dishes (8 fish/dish) for bone staining using calcein solution. The calcein solution was prepared at 0.2% by dissolving 2 g of calcein powder (Sigma Chemical, St. Louis, Mo.) in 1 liter of deionized water. The immersion time was 10 minutes at 7 dpf. After the immersion, the embryos were rinsed a number of times in fresh water, and then allowed to stand for 10 mins to allow the excess stain diffusion from the larvae tissue. The embryos were then euthanized in tricaine-methanesulfonate (MS 222) and mounted on depression glass slides with methyl-cellulose (3%). […] Each image was taken at 200 mini-seconds, then the fluorescence of the calcein stain images was calculated using NIH Image J (NIH open software with Macbiophotonics plugins). […]

Data set [9] can be described thus: Solubility comparison. The format is physicochemical. As to conditions: compared with simvastatin.
The subject of data set [10] is zebrafish. The conditions noted are these: reported by Fleming; cited from earlier work.

By IC50 is commonly meant the point on the concentration scale where inhibition reaches its midpoint. Low values mean greater potency in that assay, high ones weaker potency in that assay. For the compound `CCC(C)(C)C(=O)O[C@H]1C[C@@H](C)C=C2C=C[C@H](C)[C@H](CC[C@@H](O)C[C@@H](O)CC(=O)NCCO)[C@H]21` [Compound 5], the values for the IC50 in data set [1] and in data set [2] were 117 ± 8.07 µM and 1.02 ± 0.0509 µM, respectively. In addition, the “induction of cell mineralization” value is “clearly induced cell mineralization” in [3] (1 μM, Day 9, FIG. 8(a)) and “excellent ability to induce cell mineralization” in [3] (1 μM, Day 11, FIG. 8(b)).
Consider `CCCNC(=O)C[C@H](O)C[C@H](O)CC[C@@H]1[C@@H]2C(=C[C@H](C)C[C@@H]2OC(=O)C(C)(C)CC)C=C[C@@H]1C` [Compound 11], for which the values for the half-maximal inhibitory concentration (IC50) in data set [1] and in data set [2] were 94.1 ± 10.6 µM and 21.6 µM, respectively.
On to `CCC(C)(C)C(=O)O[C@H]1C[C@@H](C)C=C2C=C[C@H](C)[C@H](CC[C@@H](O)C[C@@H](O)CC(=O)NCc3ccccn3)[C@H]21` [Compound 9], for which the midpoint of inhibition in data set [1], the IC50, lay at 97.3 ± 7.9 µM. Besides, in [2], the “effective inhibitory concentration compared with simvastatin” value stood at 500 fold and the IC50 is above 30 µM.
`C=CCNC(=O)C[C@H](O)C[C@H](O)CC[C@@H]1[C@@H]2C(=C[C@H](C)C[C@@H]2OC(=O)C(C)(C)CC)C=C[C@@H]1C` [Compound 10]: the IC50 in [1] was 92.2 ± 2.1 µM; in data set [2], 26.6 µM.
As for `CCC(C)(C)C(=O)O[C@H]1C[C@@H](C)C=C2C=C[C@H](C)[C@H](CC[C@@H](O)C[C@@H](O)CC(=O)NCCCO)[C@H]21` [Compound 6], the IC50 in data set [1] was 161 ± 3.76 µM; in data set [2], 1.13 ± 0.0895 µM. In data set [3] (1 μM, Day 11, FIG. 8(b)), the “induction of cell mineralization” value is listed as “excellent ability to induce cell mineralization”.
Take `O=C(O)CN(CC(=O)O)Cc1cc2c(cc1O)Oc1cc(O)c(CN(CC(=O)O)CC(=O)O)cc1C21OC(=O)c2ccccc21` [Calcein, reference compound]: the “bone-targeting (fluorescence on the bones)” value in [4] is given as “fluorescent staining on the bone can be observed”.
Turning to `CCC(C)(C)C(=O)O[C@H]1C[C@@H](C)C=C2C=C[C@H](C)[C@H](CC[C@@H](O)C[C@@H](O)CC(=O)O)[C@H]21` [Compound 4, simvastatin acid, reference compound], the IC50 in data set [1] stood at 29.4 ± 1.02 µM; in data set [2], 0.263 ± 0.0834 µM. In addition, in [3] (4 μM, FIG. 8(c)), the “induction of cell mineralization” value is “can only induce mineralization effectively under a concentration of 4 μM”.
On to `CCC(C)(C)C(=O)O[C@H]1C[C@@H](C)C=C2C=C[C@H](C)[C@H](CC[C@@H](O)C[C@@H](O)CC(=O)N[C@@H](CCCCNC(=O)[C@H](CC(=O)O)NC(=O)[C@H](CC(=O)O)NC(=O)[C@H](CC(=O)O)NC(=O)[C@H](CC(=O)O)NC(=O)[C@H](CC(=O)O)NC(=O)[C@H](CC(=O)O)NC(=O)[C@H](CCCCNC(=S)Nc3ccc4c(c3)C(=O)OC43c4ccc(O)cc4Oc4cc(O)ccc43)NC(=O)OCCOCCOCCOCCOCCOCCOCCOCCOCCOCCOCCOC)C(=O)NCC(=O)O)[C@H]21` [Compound 1-F], for which the induction of mineralization result in [5] (15 μM) and in [5] (over 20 μM) was “can induce mineralization of D1 cells” in each case. Also, in [6] (cytotoxicity, hADSC), the “IC50 compared with simvastatin” value worked out at 300 fold. The “bone-targeting (fluorescence on the bones)” value in data set [4] is given as “targets the bones successfully”. Also, in data set [2], the “effective inhibitory concentration compared with simvastatin” value amounted to 500 fold. Further, in data set [7], the “combination with HAP” value is recorded as “combines on the surface of HAP”. For the same compound, in [8], the “promotion of bone formation compared with the non-administration group (control)” value was “up to 50%”.
As for `CCC(C)(C)C(=O)O[C@H]1C[C@@H](C)C=C2C=C[C@H](C)[C@H](CC[C@@H](O)C[C@@H](O)CC(=O)NCCOCCO)[C@H]21` [Compound 7], the “IC50 compared with simvastatin” value in data set [1] came out at 83 fold. The IC50 in data set [1] was determined as 269.1 ± 1.04 µM; in [2], 0.171 ± 0.0092 µM. For the same compound, the “induction of cell mineralization” value was “clearly induced cell mineralization” in [3] (1 μM, Day 9, FIG. 8(a)); “excellent ability to induce cell mineralization” in data set [3] (1 μM, Day 11, FIG. 8(b)); “obvious ability to induce cell mineralization” in [3] (4 μM, FIG. 8(c)). Also, in data set [9], the solubility result was “higher than simvastatin”.
Turning to `CCC(C)(C)C(=O)O[C@H]1C[C@@H](C)C=C2C=C[C@H](C)[C@H](CC[C@@H]3C[C@@H](O)CC(=O)O3)[C@H]21` [Simvastatin, (1S,3R,7S,8S,8aR)-8-{2-[(2R,4R)-4-hydroxy-6-oxotetrahydro-2H-pyran-2-yl]ethyl}-3,7-dimethyl-1,2,3,7,8,8a-hexahydronaphthalen-1-yl2,2-dimethylbutanoate, reference compound], the half-maximal inhibitory concentration (IC50) in [6] (Homo sapiens, 72 h) worked out at 3.25 ± 0.31 µM; in data set [1] it was 3.25 ± 0.31 µM. The “bone growth of zebrafish” value in data set [10] is “does not benefit in the bone growth of zebrafish”. The “promotion of bone formation compared with the non-administration group (control)” value in data set [8] is “did not promote bone formation”.
On to `CCC(C)(C)C(=O)O[C@H]1C[C@@H](C)C=C2C=C[C@H](C)[C@H](CC[C@@H](O)C[C@@H](O)CC(=O)NN)[C@H]21` [Compound 8], for which the IC50 in data set [1] turned out to be 106 ± 3.3 µM; in [2], 0.95 ± 0.0801 µM.
